From US7943628B2, “Pyrimidine derivatives” (Pfizer Limited, priority 2005, dated 2011)

Tests used:
histamine H4 receptor [1] = biological target: T1, histamine H4 receptor (Homo sapiens, UniProt Q9H3N8); assay: H4 binding, method 1 ([3H]-histamine filtration binding on CHO cell membranes); conditions: H4 binding, method 1; Ki calculated from IC50 (Cheng-Prussoff)
T1 construct: expressed in transfected cells; host or cells: CHO cells
How it was run: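 Membranes from CHO cells expressing human H4 receptor (20-35 μg/well) incubated 90 min at room temperature with 3 nM [3H]-histamine in 50 mM Tris-HCl pH 7.4, ± competitor. Bound label separated by filtration on PEI-soaked GF/B filters and counted by scintillation; non-specific binding with 10 μM JNJ7777120.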

histamine H4 receptor [2] = biological target: T1, histamine H4 receptor; assay: H4 binding, method 2 ([3H]-histamine binding with Ysi WGA beads on CHO cell membranes); conditions: H4 binding, method 2, Ki calculated from IC50 (Cheng-Prussoff)
How it was run: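 Membranes from H4-expressing CHO cells were pre-bound to WGA SPA beads, then incubated 90 min at room temperature with 6.5 nM [3H]-histamine in 50 mM Tris-HCl pH 7.4, with or without competitor. Non-specific binding defined with 10 μM JNJ7777120; bound label read by scintillation counting.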

| Ki (histamine H4 receptor [1]) [nM] | Ki (histamine H4 receptor [2]; read-out: Method 2 (Ki (nM))) [nM] | SMILES | Ki (histamine H4 receptor [2]; Method 2 (Ki (nM))) [nM] |
| --- | --- | --- | --- |
| 13.6 | 23.3 | CN[C@@H]1CCN(c2cc(NCC(C)C)ncn2)C1 [Example 14, N-Isobutyl-6-[(3R)-3-(methyl-amino)pyrrolidin-1-yl]pyrimidin-4-amine] | – |
| 30.5 | 58.1 | CC(C)CNc1cc(N2CC[C@@H](N(C)C)C2)ncn1 [Example 20, 6-[(3R)-3-(Dimethylamino)pyrrolidin-1-yl]-N-isobutyl-pyrimidin-4-amine] | – |
| 58.9 | 59.3 | CN(C)[C@@H]1CCN(c2cc(NCC(C)(C)C)ncn2)C1 [Example 22, 6-[(3R)-3-(Dimethylamino)pyrrolidin-1-yl]-N-(2,2-dimethylpropyl)pyrimidin-4-amine] | – |
| 10.7 | 29.9 | CNC1CN(c2cc(NCC(C)C)ncn2)C1 [Example 49, N-Isobutyl-6-[3-(methylamino)azetidin-1-yl]pyrimidin-4-amine] | – |
| 37.7 | 59.2 | CNC1CN(c2cc(NCCC(C)(C)C)ncn2)C1 [Example 59, N-(3,3-Dimethylbutyl)-6-[3-(methylamino)azetidin-1-yl]pyrimidin-4-amine] | – |
| 3.57 | 28.8 | CNC1CN(c2cc(NC(C)C)nc(N)n2)C1 [Example 60, N^4-Isopropyl-6-(3-methylamino-azetidin-1-yl)-pyrimidine-2,4-diamine] | – |
| 1.66 | 1.33 | CNC1CN(c2cc(NCC(C)(C)C)nc(N)n2)C1 [Example 61, N^4-(2,2-Dimethylpropyl)-6-[3-(methylamino)azetidin-1-yl]pyrimidine-2,4-diamine] | – |
| 8.94 | 14.1 | CNC1CN(c2cc(NCCC(F)(F)F)nc(N)n2)C1 [Example 62, 6-(3-Methylamino-azetidin-1-yl)-N^4-(3,3,3-trifluoro-propyl)-pyrimidine-2,4-diamine] | – |
| 1.95 | 12.2 | CNC1CN(c2cc(NCC3CC3)nc(N)n2)C1 [Example 63, N^4-Cyclopropylmethyl-6-(3-methylamino-azetidin-1-yl)-pyrimidine-2,4-diamine] | – |
| 4.63 | 4.43 | CNC1CN(c2cc(NCCC(C)(C)C)nc(N)n2)C1 [Example 64, N^4-(3,3-Dimethyl-butyl)-6-(3-methylamino-azetidin-1-yl)-pyrimidine-2,4-diamine] | – |
| 17.5 | 19.8 | CNC1CN(c2cc(NCc3cccc(F)c3)nc(N)n2)C1 [Example 65, N^4-(3-Fluoro-benzyl)-6-(3-methylamino-azetidin-1-yl)-pyrimidine-2,4-diamine] | – |
| 0.278 | 1.6 | CNC1CN(c2cc(NCC3CCC3)nc(N)n2)C1 [Example 67, N^4-Cyclobutylmethyl-6-(3-methylamino-azetidin-1-yl)-pyrimidine-2,4-diamine] | – |
| 0.979 | 6.26 | CNC1CN(c2cc(NCC3CCCC3)nc(N)n2)C1 [Example 68, N^4-Cyclopentylmethyl-6-(3-methylamino-azetidin-1-yl)-pyrimidine-2,4-diamine] | – |
| 1.29 | 14 | CNC1CN(c2cc(NCC(C)C)nc(N)n2)C1 [Example 71, N^4-Isobutyl-6-[3-(methylamino)azetidin-1-yl]pyrimidine-2,4-diamine] | – |
| 0.58 | 16.8 | CNC1CN(c2cc(NCCC(C)C)nc(N)n2)C1 [Example 74, 6-[3-(Methylamino)azetidin-1-yl]-N^4-(3-methylbutyl)pyrimidine-2,4-diamine] | – |
| 201 | 1800 | CC(C)(C)CCNc1cc(N2CCNCC2)ncn1 [Example 111, N-(3,3-Dimethylbutyl)-6-piperazin-1-ylpyrimidin-4-amine] | – |
| 839 | > 16200 | CCN1CCN(c2cc(NCCC(C)(C)C)ncn2)CC1 [Example 270, N-(3,3-Dimethylbutyl)-6-(4-ethylpiperazin-1-yl)pyrimidin-4-amine] | – |

| SMILES | Ki (histamine H4 receptor [1]) [nM] | Ki (histamine H4 receptor [2]; read-out: Method 2 (Ki (nM))) [nM] | Ki (histamine H4 receptor [2]; Method 2 (Ki (nM))) [nM] |
| --- | --- | --- | --- |
| CN1CCN(c2cc(NCC(C)(C)C)ncn2)CC1 [Example 99, N-(2,2-Dimethylpropyl)-6-(4-methylpiperazin-1-yl)pyrimidin-4-amine] | 23.6 | – | 38.1 |
| CC(C)Nc1cc(N2CCN(C)CC2)nc(N)n1 [Example 119, N^4-Isopropyl-6-(4-methylpiperazin-1-yl)pyrimidine-2,4-diamine] | 3.44 | – | 7.8 |
| CCNc1cc(N2CCN(C)CC2)nc(N)n1 [Example 120, N^4-Ethyl-6-(4-methylpiperazin-1-yl)pyrimidine-2,4-diamine] | 4.89 | – | 11.2 |
| CC(C)CNc1cc(N2CCN(C)CC2)nc(N)n1 [Example 121, N^4-Isobutyl-6-(4-methylpiperazin-1-yl)pyrimidine-2,4-diamine] | 2.18 | – | 6.64 |
| CN1CCN(c2cc(NCC3CC3)nc(N)n2)CC1 [Example 122, N^4-(Cyclopropylmethyl)-6-(4-methylpiperazin-1-yl)pyrimidine-2,4-diamine] | 3.65 | – | 8.65 |
| CN1CCC(N(C)c2cc(NCCC(C)(C)C)ncn2)CC1 [Example 279, N′-(3,3-Dimethylbutyl)-N-methyl-N-(1-methylpiperidin-4-yl)pyrimidine-4,6-diamine] | 1370 | > 9130 | – |
